Structures are written as SMILES.

This is an account of results in patent US20090136470A1, “REGULATORY T CELLS AND METHODS OF MAKING AND USING SAME” (priority 2007, published 2009).

Data set [1] has as its system CD8^+T cells from OT-I TCR transgenic mice. On the procedure: (§1) The culture medium used for dendritic cell-T cell cultures was Iscove's modified Dulbecco medium (IMDM) (Gibco, USA) supplemented with 10% heat-inactivated FCS, 2 mM L-glutamine, 100 U/ml penicillin, 100 μg/ml streptomycin, and 5 mM β-mercaptoethanol (all Sigma, USA). […] For dendritic cell-T cell cultures, 2×10^4 dendritic cells and 1×10^5 T cells were cultured in a volume of 200 μl (96-well plates). For irradiated APC-T cell cultures, 5×10^5 APCs and 1×10^5 T cells were cultured in a volume of 200 μl in 96-well plates (2×10^6 APCs and 0.5×10^6 T cells per well in 48-well plates). […] For the study shown in FIG. 4A, after sorting of naive CD4^+ cells (CD25^−CD44^lowCD62L^+), cells were washed twice in PBS+0.1% BSA, counted and labeled with 2 μM of CFSE (Carboxyfluorescein diacetate, succinimidyl ester) (Molecular Probes, USA) at a concentration of 5−10×10^6 cells per ml in PBS-0.1% BSA.
(§2) For Foxp3 staining, no stimulation with PMA/Ionomycin was performed, with the exceptions of FIGS. 8B and 9A.

For data set [2], the system named is Polyclonal CD4^+CD25^− spleen T cells. As to the kind of experiment: APC-free Th-17 generation (anti-CD3/CD28 beads, IL-17 cond.: TGF-β, IL-6, IL-1β, TNF-α). It is filed as cell-based, mouse. On the procedure: as §1
(§3) To block non-specific staining, the 2.4G2 anti-CD16/32 antibody was added. […] For intracellular cytokine staining, cells obtained from in vitro cultures or isolated IELs were incubated for 4-5 hours with 50 ng/ml PMA, 750 ng/ml Ionomycin (both Sigma, USA) and 10 μg/ml Brefeldin A (Invitrogen, USA) in a tissue culture incubator at 37° C.

For data set [3], the system named is naïve CD4^+T cells. As to the kind of experiment: Re-stimulation (secondary cultures) of in vitro differentiated CD4 T cells: Foxp3 and IL-17 staining. Conditions: cells first stimulated with TGF-β and IL-6, rested. In kind it is cell-based, mouse. On the procedure:
as §1, §3
(§4) For Foxp3 staining, no stimulation with PMA/Ionomycin was performed, with the exceptions of FIGS. 8B and 9A. […]

Data set [4] concerns CD4^+CD25^− spleen T cells. Description: Th-17 differentiation of CD4 T cells stimulated with dendritic cells or spleen APCs plus TGF-β and IL-6 (intracellular IL-17 staining, IL-17 ELISA). In kind it is cell-based, mouse. On the procedure: (§5) For CD4^+CD25^− T cell isolation, spleens were removed, teased into cell-single suspensions and filtered through a 70 μm cell strainer (Fisher Scientific, USA). CD4^+CD25^−T cells were isolated by negative selection after incubation with a mix of specific biotin-conjugated mAbs (anti-CD8, CD11b, CD11ε, CD25, CD45R (B220), NK1.1, and TER119) at 1/200 dilution, and anti-biotin magnetic microbeads (25-40 μl per spleen) (Miltenyi Biotec, USA).
(§6) For dendritic cells isolation, spleen and MLN were chopped and digested by collagenase type D (Roche, USA) for 30 min at room temperature. Digested tissues were treated with 5 mM of EDTA for additional 5 min and mashed through a 70 μm cell strainer. Subsequently, CD11c^+ cells were enriched by positive selection using anti-CD11c microbeads according to the manufacturer's protocol (Miltenyi Biotec, USA). Enriched populations were stained with CD45-APC, CD 11c-PE, I-A^b-FITC and TCR β and sorted for TCRβ^−CD45^+CD11c^+I-Ab^+ by flow cytometry using a FACS-DIVA cell sorter (USA).
as §1
To block non-specific staining, the 2.4G2 anti-CD16/32 antibody was added.
A general note: In an ELISA, binding on a coated surface is turned into a signal by an enzyme label.

The test system of data set [5] is CD4^+CD25^−T cells. Description: TGF-β-dependent Foxp3 induction (Treg differentiation) in CD4 T cells with dendritic cells or APCs. In kind it is cell-based, mouse. On the procedure: as §5, §6, §1, §4
The test system of data set [6] is RORγt. As to the kind of experiment: RORγt mRNA by real-time PCR in CD4 T cells under Th-17 culture conditions. In kind it is cell-based, mouse. Conditions: α-CD3ε and α-CD28, IL-17 inducing cytokines. The source says:
For analysis of RORγ-T mRNA expression, naïve CD4^+T cells were purified essentially as described by Ivanov et al. [Ivanov, II et al., Cell 126, 1121 (2006)]. In brief, CD4+ T cells were purified from spleens of C57BL/6 mice using anti-CD4 magnetic microbeads (Miltenyi Biotec) and MACS columns. CD4^+T cells were stained with anti-CD25-PE, anti-CD4-PECy5, anti-CD62L-FITC, and anti-CD44-APC. The CD4^+CD25^− CD44^lowCD62L^+ T cells population was sorted by flow cytometry using a FACS-DIVA cell sorter (>99% purity). Some studies were also performed using CD4^+CD45RB^high T cell population, sorted as described above.
At different time-points, cells were harvested, washed with sterile PBS and resuspended in TRIZol (Invitrogen, USA). Samples were then frozen and kept at −80° C. for later utilization. For RNA isolation, the whole tissue was homogenized and RNA was separated from DNA and proteins by precipitation with chloroform and extraction with isopropanol. The cDNA was synthesized from the total RNA using the Superscript II system (Invitrogen, USA) following the instructions provided by the manufacturer. […] Data were collected and analyzed on an iCycler Bio-Rad (Hercules, USA).
Background: In qPCR the cycle at which signal appears reflects the starting amount.

For data set [7], the system named is CD8^+ spleen T cells. As to the kind of experiment: IL-17^+ cell generation from CD8^+ T cells activated with TGF-β and IL-6.
Data set [8] has as its system RAR. Particulars: cited from earlier work.
In data set [9] the test system is naïve CD4^+T cells from B7.1/2^−/− IL-2^+/+ or B7.1/2^−/− IL-2^−/− mice. Description: RA-mediated effects on T cell differentiation without IL-2 (anti-IL-2 or IL-2−/− T cells) or with exogenous IL-2. In kind it is cell-based, mouse. The protocol:
as §1, §2

Turning to `CC1=C(/C=C/C(C)=C/C=C/C(C)=C/C(=O)O)C(C)(C)CCC1` [RA, All-trans retinoic acid], the “CD103 expression on CD8 cells” value in data set [1] (TGF-β and RA) is listed as “synergized to upregulate CD103 expression”. In addition, the “CD25 expression of CD8 T cells upon in vitro activation” value in [1] (in the presence of TGF-β and RA) is “down-regulate CD25 expression”. In addition, in data set [2], the “generation of IL-17^+ T cells under APC-free conditions” value was “also inhibited the generation of IL-17^+T cells”. Further, the “committed Th-17 cells in secondary cultures” value in [3] was “also suppressed committed Th-17 cells”. In addition, the “antagonistic effect on IL-6 (Foxp3 versus IL-17)” value in [4] (TGF-β 5 ng/ml, varied concentrations of IL-6 and RA) is “dose dependent”. Moreover, the “Foxp3 / Th-17 differentiation of CD4 T cells under conditions that promote Th-17 differentiation” value in data set [4] (TNF-α, IL-1-β, TGF-β and IL-6 plus RA) is given as “converted to Foxp3^+ cells with a decrease in Th-17 differentiation”. In addition, in data set [4] (added to cultures with TGF-β and IL-6, 100 nM), the “Th-17 differentiation by spleen dendritic cells” value is recorded as “inhibited the Th-17 differentiation by spleen dendritic cells”. Also, the “TGF-β-dependent Foxp3 induction by MLN dendritic cells” value in [5] (OT-II CD4 cells, OVAp, TGF-β1, LE135 1 μM, RA 100 nM) was “enhanced”. The “TGF-β-dependent Foxp3 induction under low amounts of TGF-β” value in data set [5] (TGF-β 0.5 ng/ml, TCR-transgenic CD4 cells) is recorded as “still enhances”. The “RORγt mRNA expression” value in data set [6] is listed as “greatly reduced its expression”. In addition, the “generation of IL-17^+ T cells from cytotoxic CD8^+ T lymphocytes” value in data set [7] (WT or OT-I TCR^+ CD8^+ T cells, TGF-β and IL-6) was “again able to inhibit this”. The “Foxp3 / Th-17 differentiation of CD8 T cells under conditions that promote Th-17 differentiation” value in data set [7] (cultured with RA) is recorded as “converted to Foxp3^+ cells with a decrease in Th-17 differentiation”. Also, in data set [8], the “binding to RAR-RAR homodimers and RAR-RXR heterodimers” value is “can bind”. Further, the “requirement for exogenously added IL-2” value in data set [9] is recorded as “did not require exogenously added IL-2”. In addition, the “CD103 phenotype of the Foxp3^+Tregs generated” value in data set [9] (TGF-β-dependent Foxp3 differentiation) is reported as “mostly CD103^+Tregs”. Besides, the “dependence of Foxp3^+ enhancing and Th-17 inhibitory effects on IL-2” value in data set [9] (anti-IL-2 (20 μg/ml) or IL-2−/− T cells) is “for the most part dependent on IL-2”. For the same compound, the “IL-17 cytokine secretion (ELISA)” value in [9] (culture supernatants) is listed as “measurably decreased”.
